Test results taken from ChEMBL document CHEMBL2150927, “5-Amino-oxazepine and 5-Amino-thiazepine Compounds as β-Secretase Antagonists and Methods of Use: Patent Highlight” (ACS Med Chem Lett, 2012).

Experiments:
Beta-secretase 1 [1] = biological target: T1, Beta-secretase 1 (Homo sapiens, UniProt P56817); experiment: Inhibition of BACE1 expressed in HEK cells by cell-based assay; design: species or system HEK293
Beta-secretase 1 [2] = biological target: T1, Beta-secretase 1; experiment: Inhibition of BACE1 by FRET assay

T1 sequence (P56817 whole entry): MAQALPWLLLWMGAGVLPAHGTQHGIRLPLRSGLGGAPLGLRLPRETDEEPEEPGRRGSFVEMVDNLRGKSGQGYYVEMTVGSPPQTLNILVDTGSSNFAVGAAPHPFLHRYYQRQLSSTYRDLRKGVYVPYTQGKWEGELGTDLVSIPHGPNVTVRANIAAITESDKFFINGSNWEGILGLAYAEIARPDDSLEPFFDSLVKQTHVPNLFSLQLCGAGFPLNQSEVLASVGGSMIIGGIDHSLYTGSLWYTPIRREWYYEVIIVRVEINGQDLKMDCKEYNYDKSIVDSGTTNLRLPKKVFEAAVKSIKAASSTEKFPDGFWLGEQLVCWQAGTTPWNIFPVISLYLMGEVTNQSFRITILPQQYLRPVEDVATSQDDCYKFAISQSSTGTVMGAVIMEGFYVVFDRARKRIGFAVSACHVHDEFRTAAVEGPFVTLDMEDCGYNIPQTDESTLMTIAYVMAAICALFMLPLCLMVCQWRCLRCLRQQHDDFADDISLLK

IC50 (Beta-secretase 1 [1])	IC50 (Beta-secretase 1 [2])	SMILES
19 nM	2 nM	NC1=N[C@@]2(CCOC1)c1cc(-c3cccnc3F)ccc1Oc1cnc(-c3ccc(F)c(F)c3)cc12
7 nM		CC(C)(C)COc1cc(F)c2c(c1)[C@]1(COCCC(N)=N1)c1cc(-c3cccnc3F)ccc1O2
4 nM	3 nM	NC1=N[C@@]2(CCOC1)c1cc(-c3cccnc3F)ccc1Oc1cnc(C3CCC(F)(F)C3)cc12 (stereo partly specified)

SMILES	IC50 (Beta-secretase 1 [1])	IC50 (Beta-secretase 1 [2])
NC1=N[C@@]2(COCC1)c1cc(-c3cccnc3F)ccc1Oc1cnc(-c3ccnc(F)c3)cc12	1 nM	
